Results on 21 compounds are retold here after patent US10259808B2 (Genentech, Inc., priority 2015, dated 2019).

The target in one experiment is T1, RORc ligand binding domain (Homo sapiens, UniProt P51449).
T1 sequence (P51449 269-508 limits assumed): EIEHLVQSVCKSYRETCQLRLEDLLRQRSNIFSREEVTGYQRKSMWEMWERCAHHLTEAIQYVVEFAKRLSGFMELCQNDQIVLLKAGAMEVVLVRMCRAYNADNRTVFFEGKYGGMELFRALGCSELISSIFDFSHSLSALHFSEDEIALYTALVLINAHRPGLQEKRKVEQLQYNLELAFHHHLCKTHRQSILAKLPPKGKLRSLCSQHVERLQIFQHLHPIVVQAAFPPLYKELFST
In words: In vitro RORc ligand binding assay (25-[3H]hydroxycholesterol displacement).
Conditions: not given
Turning to `C[C@H]1CC[C@H](c2ccccc2)S(=O)(=O)N1Cc1cc(F)c([C@]2(c3nnc[nH]3)C[C@](C)(O)C2)cc1F` [Example 145, trans 3-[2,5-difluoro-4-[[(3S,6R)-3-methyl-1,1-dioxo-6-phenyl-thiazinan-2-yl]methyl]phenyl]-1-methyl-3-(4H-1,2,4-triazol-3-yl)cyclobutanol], the IC50 came to 7 nM.
The same measure, in the same setting: the same measure for `C[C@H]1CC[C@H](c2ccccc2)S(=O)(=O)N1Cc1cc(F)c([C@]2(c3nn(C)c(=O)o3)C[C@@H](O)C2)cc1F` [Example 146, cis 5-[1-[2,5-difluoro-4-[[(3S,6R)-3-methyl-1,1-dioxo-6-phenyl-thiazinan-2-yl]methyl]phenyl]-3-hydroxy-cyclobutyl]-3-methyl-1,3,4-oxadiazol-2-one]: 17.6 nM; for `C[C@H]1CC[C@H](c2ccccc2)S(=O)(=O)N1Cc1cc(F)c([C@]2(c3nn(C)c(=O)o3)C[C@H](O)C2)cc1F` [Example 147, trans 5-[1-[2,5-difluoro-4-[[(3S,6R)-3-methyl-1,1-dioxo-6-phenyl-thiazinan-2-yl]methyl]phenyl]-3-hydroxy-cyclobutyl]-3-methyl-1,3,4-oxadiazol-2-one]: 4.6 nM.
On to `C[C@H]1CC[C@H](c2ccccc2)S(=O)(=O)N1Cc1cc(F)c([C@]2(c3n[nH]c(=O)o3)C[C@@](O)(C(F)(F)F)C2)cc1F` [Example 149, trans 5-[1-[2,5-difluoro-4-[[(3S,6R)-3-methyl-1,1-dioxo-6-phenyl-thiazinan-2-yl]methyl]phenyl]-3-hydroxy-3-(trifluoromethyl)cyclobutyl]-3H-1,3,4-oxadiazol-2-one], for which the IC50 stood at 5.3 nM.
The compound `C[C@H]1CC[C@H](c2ccccc2)S(=O)(=O)N1Cc1cc(F)c([C@]2(c3n[nH]c(=O)o3)C[C@@H]2CO)cc1F` [Example 150, 5-[(1S,2S)-1-[2,5-difluoro-4-[[(3S,6R)-3-mcthyl-1,1-dioxo-6-phenyl-thiazinan-2-yl]methyl]phenyl]-2-(hydroxymethyl)cyclopropyl]-3H-1,3,4-oxadiazol-2-one] had a half-maximal inhibitory concentration (IC50) of 39 nM.
Still for that read-out and setting: the same measure for `C[C@H]1CC[C@H](c2ccccc2)S(=O)(=O)N1Cc1cc(F)c([C@]2(c3nn(C)c(=O)o3)C[C@](C)(O)C2)cc1F` [Example 151, trans 5-[1-[2,5-difluoro-4-[[(3S,6R)-3-methyl-1,1-dioxo-6-phenyl-thiazinan-2-yl]methyl]phenyl]-3-hydroxy-3-methyl-cyclobutyl]-3-methyl-1,3,4-oxadiazol-2-one]: 6.9 nM.
`C[C@H]1CC[C@H](c2ccccc2)S(=O)(=O)N1Cc1cc(F)c([C@]2(c3n[nH]c(=O)o3)C[C@@H](CC#N)C2)cc1F` [Example 152, cis 2-[3-[2,5-difluoro-4-[[(3S,6R)-3-methyl-1,1-dioxo-6-phenyl-thiazinan-2-yl]methyl]phenyl]-3-(2-oxo-3H-1,3,4-oxadiazol-5-yl)cyclobutyl]acetonitrile] yielded a half-maximal inhibitory concentration (IC50) of 7.1 nM.
Still for that read-out and setting: to `C[C@H]1CC[C@H](c2ccccc2)S(=O)(=O)N1Cc1cc(F)c([C@]2(c3n[nH]c(=O)o3)C[C@H](CC#N)C2)cc1F` [Example 153, trans 2-[3-[2,5-difluoro-4-[[(3S,6R)-3-methyl-1,1-dioxo-6-phenyl-thiazinan-2-yl]methyl]phenyl]-3-(2-oxo-3H-1,3,4-oxadiazol-5-yl)cyclobutyl]acetonitrile] belongs 8.7 nM; to `CO[C@H]1C[C@@](c2n[nH]c(=O)o2)(c2cc(F)c(CN3[C@@H](C)CC[C@H](c4ccccc4)S3(=O)=O)cc2F)C1` [Example 154, trans 5-[1-[2,5-difluoro-4-[[(3S,6R)-3-methyl-1,1-dioxo-6-phenyl-thiazinan-2-yl]methyl]phenyl]-3-methoxy-cyclobutyl]-3H-1,3,4-oxadiazol-2-one], 6.2 nM.
On to `CO[C@H]1C[C@](c2n[nH]c(=O)o2)(c2cc(F)c(CN3[C@@H](C)CC[C@H](c4ccccc4)S3(=O)=O)cc2F)C1` [Example 155, cis 5-[1-[2,5-difluoro-4-[[(3S,6R)-3-methyl-1,1-dioxo-6-phenyl-thiazinan-2-yl]methyl]phenyl]-3-methoxy-cyclobutyl]-3H-1,3,4-oxadiazol-2-one], for which the half-inhibitory concentration (IC50) came out at 11.3 nM. Compared with the last compound, the IC50 is about 1.8-fold higher.
For `CO[C@]1(C)C[C@](c2n[nH]c(=O)o2)(c2cc(F)c(CN3[C@@H](C)CC[C@H](c4ccccc4)S3(=O)=O)cc2F)C1` [Example 156, trans 5-[1-[2,5-difluoro-4-[[(3S,6R)-3-methyl-1,1-dioxo-6-phenyl-thiazinan-2-yl]methyl]phenyl]-3-methoxy-3-methyl-cyclobutyl]-3H-1,3,4-oxadiazol-2-one], the IC50 worked out at 4 nM.
In the case of `CO[C@]1(C)C[C@@](c2n[nH]c(=O)o2)(c2cc(F)c(CN3[C@@H](C)CC[C@H](c4ccccc4)S3(=O)=O)cc2F)C1` [Example 157, cis 5-[1-[2,5-difluoro-4-[[(3S,6R)-3-methyl-1,1-dioxo-6-phenyl-thiazinan-2-yl]methyl]phenyl]-3-methoxy-3-methyl-cyclobutyl]-3H-1,3,4-oxadiazol-2-one], the IC50 was found to be 7.4 nM.
Same read-out and setting: to `C[C@H]1CC[C@H](c2ccccc2)S(=O)(=O)N1Cc1cc(F)c([C@]2(c3c[nH]c(=O)o3)C[C@](C)(O)C2)cc1F` [Example 158, 5-[1-[2,5-difluoro-4-[[(3S,6R)-3-methyl-1,1-dioxo-6-phenyl-thiazinan-2-yl]methyl]phenyl]-3-hydroxy-3-methyl-cyclobutyl]-3H-oxazol-2-one] belongs 3.2 nM; to `C[C@H]1CC[C@H](c2ccccc2)S(=O)(=O)N1Cc1cc(F)c([C@]2(c3cn(C)c(=O)o3)C[C@](C)(O)C2)cc1F` [Example 159, 5-[1-[2,5-difluoro-4-[[(3S,6R)-3-methyl-1,1-dioxo-6-phenyl-thiazinan-2-yl]methyl]phenyl]-3-hydroxy-3-methyl-cyclobutyl]-3-methyl-oxazol-2-one], 2.8 nM.
The same measure, in the same setting: to `Cc1[nH]c(=O)oc1[C@]1(c2cc(F)c(CN3[C@@H](C)CC[C@H](c4ccccc4)S3(=O)=O)cc2F)C[C@@](C)(O)C1` [Example 160, 5-[1-[2,5-difluoro-4-[[(3S,6R)-3-methyl-1,1-dioxo-6-phenyl-thiazinan-2-yl]methyl]phenyl]-3-hydroxy-3-methyl-cyclobutyl]-4-methyl-3H-oxazol-2-one] belongs 13.6 nM; to `C[C@H]1CC[C@H](c2ccccc2)S(=O)(=O)N1Cc1cc(F)c([C@]2(c3cc(=O)n(C)o3)C[C@](C)(O)C2)cc1F` [Example 161, 5-[1-[2,5-difluoro-4-[[(3S,6R)-3-methyl-1,1-dioxo-6-phenyl-thiazinan-2-yl]methyl]phenyl]-3-hydroxy-3-methyl-cyclobutyl]-2-methyl-isoxazol-3-one], 5.2 nM; to `COc1cc([C@]2(c3cc(F)c(CN4[C@@H](C)CC[C@H](c5ccccc5)S4(=O)=O)cc3F)C[C@@](C)(O)C2)on1` [Example 162, 3-[2,5-difluoro-4-[[(3S,6R)-3-methyl-1,1-dioxo-6-phenyl-thiazinan-2-yl]methyl]phenyl]-3-(3-methoxyisoxazol-5-yl)-1-methyl-cyclobutanol], 3.6 nM.
The compound `C=C[C@]1(O)C[C@@](c2c[nH]c(=O)o2)(c2cc(F)c(CN3[C@@H](C)CC[C@H](c4ccccc4)S3(=O)=O)cc2F)C1` [Example 164, 5-[1-[2,5-difluoro-4-[[(3S,6R)-3-methyl-1,1-dioxo-6-phenyl-thiazinan-2-yl]methyl]phenyl]-3-hydroxy-3-vinyl-cyclobutyl]-3H-oxazol-2-one] showed a half-inhibitory concentration (IC50) of 6.1 nM.
`C[C@H]1CC[C@H](c2ccccc2)S(=O)(=O)N1Cc1cc(F)c([C@]2(c3c[nH]c(=O)o3)C[C@@](O)(C3CC3)C2)cc1F` [Example 165, 5-[3-cyclopropyl-1-[2,5-difluoro-4-[[(3S,6R)-3-methyl-1,1-dioxo-6-phenyl-thiazinan-2-yl]methyl]phenyl]-3-hydroxy-cyclobutyl]-3H-oxazol-2-one] yielded a half-inhibitory concentration (IC50) of 6.7 nM.
With `C[C@H]1CC[C@H](c2ccccc2)S(=O)(=O)N1Cc1cc(F)c(C2(C(=O)NCC3COC3)CCOCC2)cc1F` [Example 346, 4-[2,5-difluoro-4-[[(3S,6R)-3-methyl-1,1-dioxo-6-phenyl-thiazinan-2-yl]methyl]phenyl]-N-(oxetan-3-ylmethyl)tetrahydropyran-4-carboxamide], the IC50 was found to be 47.4 nM. Against the preceding compound, the IC50 is about 7.1-fold higher.

The experiment is the same for the next values; noted with them: IC50 values for RORc.
Regarding “cis 5-[1-[2,5-difluoro-4-[[(3S,6R)-3- methyl-1,1-dioxo-6-phenyl-thiazinan-2- yl]methyl]phenyl]-3-hydroxy-3- (trifluoromethyl)cyclobutyl]-3H-1,3,4- oxadiazol-2-one [Example 148]”, the 50% inhibitory concentration (IC50) was 11 nM.
